Assay results published in patent US9187472B2 (AbbVie Inc., priority 2012, dated 2015).

Columns and labels:
NAMPT = NAMPT (Homo sapiens, UniProt P43490); test: TR-FRET Binding Assay of NAMPT with PRPP; details: with 200 μM PRPP and 2.5 mM ATP; 2 nM NAMPT, 2 nM probe, 16 hours equilibration
Outline: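 NAMPT 2 nM + probe 2 nM + Tb-anti-His Ab 1 nM; PRPP 200 μM, ATP 2.5 mM, DMSO 2%; 16 h equilibration before TR-FRET read.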

[1] = biological target: NAMPT (human, recombinant, C-terminally His-tagged) (Homo sapiens, UniProt P43490); test: Time-Resolved Fluorescence Resonance Energy Transfer (TR-FRET) Binding Assay of NAMPT; details: without substrates; 6.8 nM NAMPT, 200 nM probe, 3 hours equilibration
Sequence of NAMPT (human, recombinant, C-terminally His-tagged) (P43490 whole entry): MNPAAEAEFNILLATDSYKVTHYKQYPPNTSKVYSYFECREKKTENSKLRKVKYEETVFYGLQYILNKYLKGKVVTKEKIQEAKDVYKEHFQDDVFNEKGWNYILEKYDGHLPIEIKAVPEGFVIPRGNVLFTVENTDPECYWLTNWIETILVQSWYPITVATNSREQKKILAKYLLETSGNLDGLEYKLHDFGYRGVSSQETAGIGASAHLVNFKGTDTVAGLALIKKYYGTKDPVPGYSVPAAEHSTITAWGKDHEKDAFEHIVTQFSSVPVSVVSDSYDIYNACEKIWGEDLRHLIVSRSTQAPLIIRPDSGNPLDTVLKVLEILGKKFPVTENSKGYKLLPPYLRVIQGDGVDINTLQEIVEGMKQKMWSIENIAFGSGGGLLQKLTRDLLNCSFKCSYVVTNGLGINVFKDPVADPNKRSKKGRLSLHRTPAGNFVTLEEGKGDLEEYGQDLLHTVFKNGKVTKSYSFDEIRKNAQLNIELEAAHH
Outline: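 Read-out is the time-resolved FRET ratio Em520/Em495 (excitation 337 nm) between a terbium anti-His antibody (1 nM) on the enzyme and an Oregon Green 488-labelled nicotinamide-competitive inhibitor probe (200 nM). Enzyme was 6.8 nM, DMSO 2%, pH 7.5 HEPES buffer; 3 h room-temperature equilibration preceded reading.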

PC3 cells = test: NAMPT Cell Proliferation Assay; format: cell-based; details: Homo sapiens, PC-3, 120 h, 5 days incubation, cell viability by Cell Titer Glo
Outline: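 IC50 values derive from sigmoidal dose-response fits of percent inhibition of PC3 viability, measured by luminescence after 5 days of compound treatment. Cells (500/well, RPMI containing 10% heat-inactivated FBS) are allowed to attach overnight, and compounds are tested at 10-fold dilutions between 10 μM and 1×10^−5 μM.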

Sequence of NAMPT (P43490 whole entry): as above

Row | Compound | IC50 (NAMPT) [nM] | IC50 [1] [nM] | IC50 (PC3 cells) [nM]
1 | CC(C)(C)CC(=O)N1CCC(O)(c2ccc(C(=O)NCc3ccn4ccnc4c3)s2)CC1 [Example 555, 5-[1-(3,3-dimethylbutanoyl)-4-hydroxypiperidin-4-yl]-N-(imidazo[1,2-a]pyridin-7-ylmethyl)thiophene-2-carboxamide] | 0.749 | 427 | 33.2
2 | O=C(NCc1ccn2ccnc2c1)c1ccc(C2CCN(C(=O)c3cc(F)ccc3F)CC2)cc1 [Example 522, 4-[1-(2,5-difluorobenzoyl)piperidin-4-yl]-N-(imidazo[1,2-a]pyridin-7-ylmethyl)benzamide] | 0.199 | 58.1 | 6.73
3 | O=C(NCc1ccn2ccnc2c1)c1ccc(C2CCN(S(=O)(=O)C3CC3)CC2)cc1 [Example 684, 4-[1-(cyclopropylsulfonyl)piperidin-4-yl]-N-(imidazo[1,2-a]pyridin-7-ylmethyl)benzamide] | 1.34 | 481 | 320
4 | CCC(C)(C)C(=O)N1CCC(c2ccc(C(=O)NCc3ccn4ccnc4c3)cc2)C1 (stereo not drawn) [Example 598, 4-[1-(2,2-dimethylbutanoyl)pyrrolidin-3-yl]-N-(imidazo[1,2-a]pyridin-7-ylmethyl)benzamide] | 0.804 | 457 | 16.6
5 | O=C(NCc1ccn2ccnc2c1)c1ccc(C2(O)CN(C(=O)c3ccccc3)C2)s1 [Example 401, 5-(1-benzoyl-3-hydroxyazetidin-3-yl)-N-(imidazo[1,2-a]pyridin-7-ylmethyl)thiophene-2-carboxamide] | 0.292 | 12.6 | 55.9
6 | CCc1c(-c2ccc(C(=O)NCc3ccn4ccnc4c3)s2)cnn1CC1CCCCC1 [Example 272, 5-[1-(cyclohexylmethyl)-5-ethyl-1H-pyrazol-4-yl]-N-(imidazo[1,2-a]pyridin-7-ylmethyl)thiophene-2-carboxamide] | 0.417 | 27.2 | 15.6
7 | O=C(NCc1ccn2ccnc2c1)c1ccc(C2CCN(C(=O)c3cc(F)ccc3F)C2)s1 (stereo not drawn) [Example 785, 5-[1-(2,5-difluorobenzoyl)pyrrolidin-3-yl]-N-(imidazo[1,2-a]pyridin-7-ylmethyl)thiophene-2-carboxamide] | 0.638 | 23.6 | 0.839
8 | CC(C)S(=O)(=O)N1CC(c2ccc(C(=O)NCc3ccn4ccnc4c3)cc2)C1 [Example 557, N-(imidazo[1,2-a]pyridin-7-ylmethyl)-4-[1-(propan-2-ylsulfonyl)azetidin-3-yl]benzamide] | 0.359 | 167 | 37.4
9 | COCCOCC(=O)N1CCC(CCCCNC(=O)Nc2ccc3nccn3c2)CC1 [Example 70, 1-imidazo[1,2-a]pyridin-6-yl-3-(4-{1-[(2-methoxyethoxy)acetyl]piperidin-4-yl}butyl)urea] | 0.616 | 710 | 27.8
10 | O=C(NCc1ccn2ccnc2c1)Nc1ccc(C2CN(C(=O)c3ccccc3)C2)cc1 [Example 455, 1-[4-(1-benzoylazetidin-3-yl)phenyl]-3-(imidazo[1,2-a]pyridin-7-ylmethyl)urea] | 0.194 | 16.7 | 3.5
11 | Cc1cc(CC(=O)N(CC2CCCO2)c2ncc(C(=O)NCc3ccc4nccn4c3)s2)on1 (stereo not drawn) [Example 125, N-(imidazo[1,2-a]pyridin-6-ylmethyl)-2-{[(3-methyl-1,2-oxazol-5-yl)acetyl](tetrahydrofuran-2-ylmethyl)amino}-1,3-thiazole-5-carboxamide] | 2.09 | 547 | 23
12 | O=C(NCc1ccc2nccn2c1)c1cnc(N(CC2CCCO2)C(=O)CCc2nccs2)s1 (stereo not drawn) [Example 136, N-(imidazo[1,2-a]pyridin-6-ylmethyl)-2-{(tetrahydrofuran-2-ylmethyl)[3-(1,3-thiazol-2-yl)propanoyl]amino}-1,3-thiazole-5-carboxamide] | 0.512 | 72.7 | 3.05
13 | CCCNC(=O)c1ccc(NC(=O)Nc2ccc3nccn3c2)cc1 [Example 17, 4-[(imidazo[1,2-a]pyridin-6-ylcarbamoyl)amino]-N-propylbenzamide] | 0.401 | 2960 | 4960
14 | O=C(NCc1ccn2ccnc2c1)c1ccc(-c2cnn(CC3CCCOC3)c2)o1 (stereo not drawn) [Example 479, N-(imidazo[1,2-a]pyridin-7-ylmethyl)-5-[1-(tetrahydro-2H-pyran-3-ylmethyl)-1H-pyrazol-4-yl]furan-2-carboxamide] | 0.243 | 63 | 8.08
15 | O=C(NCc1ccn2ccnc2c1)Nc1ccc(C2CCN(C(=O)C3CCS(=O)(=O)CC3)CC2)cc1 [Example 243, 1-(4-{1-[(1,1-dioxidotetrahydro-2H-thiopyran-4-yl)carbonyl]piperidin-4-yl}phenyl)-3-(imidazo[1,2-a]pyridin-7-ylmethyl)urea] | 0.169 | 169 | 28
16 | O=C(Nc1ccc(C(=O)NCCN2CCCC2)cc1)Nc1ccc2nccn2c1 [Example 11, 4-[(imidazo[1,2-a]pyridin-6-ylcarbamoyl)amino]-N-[2-(pyrrolidin-1-yl)ethyl]benzamide] | 0.271 | 7600 | 4530
17 | O=C(NCc1ccn2ccnc2c1)c1ccc(C2=CCN(C(=O)c3ccccc3)CC2)o1 [Example 746, 5-(1-benzoyl-1,2,3,6-tetrahydropyridin-4-yl)-N-(imidazo[1,2-a]pyridin-7-ylmethyl)furan-2-carboxamide] | 0.839 | 795 | 116
18 | CC(C)(C)OC(=O)N1CCC(c2ccc(NC(=O)NCc3ccn4ncnc4c3)cc2)CC1 [Example 565, tert-butyl 4-(4-{[([1,2,4]triazolo[1,5-a]pyridin-7-ylmethyl)carbamoyl]amino}phenyl)piperidine-1-carboxylate] | 5.38 | 215 | 891
19 | O=C(NCc1ccn2ccnc2c1)Nc1ccc(C2CCN(C(=O)[C@H]3CCCO3)C2)cc1 (stereo partly drawn) [Example 386, 1-(imidazo[1,2-a]pyridin-7-ylmethyl)-3-(4-{1-[(2R)-tetrahydrofuran-2-ylcarbonyl]pyrrolidin-3-yl}phenyl)urea] | 0.254 | 283 | 42.4
20 | COc1ccc(C(CO)NC(=O)c2ccc(NC(=O)Nc3ccc4nccn4c3)cc2)cc1 (stereo not drawn) [Example 14, N-[2-hydroxy-1-(4-methoxyphenyl)ethyl]-4-[(imidazo[1,2-a]pyridin-6-ylcarbamoyl)amino]benzamide] | 1.22 | 741 | 644
21 | O=C(NCc1ccn2ccnc2c1)c1ccc(OC2CCN(C(=O)[C@H]3CCCO3)CC2)cc1 [Example 418, N-(imidazo[1,2-a]pyridin-7-ylmethyl)-4-({1-[(2R)-tetrahydrofuran-2-ylcarbonyl]piperidin-4-yl}oxy)benzamide] | 0.233 | 4750 | 866
22 | O=C(NCc1ccn2ccnc2c1)c1ccc(OC2CN(C(=O)CC3CC3)C2)cc1 [Example 560, 4-{[1-(cyclopropylacetyl)azetidin-3-yl]oxy}-N-(imidazo[1,2-a]pyridin-7-ylmethyl)benzamide] | 0.312 | 969 | 844
